Assay results reported in patent publication US5252482A, “Precursor of a C-terminal amidated calcitonin” (Suntory Limited, priority 1982, dated 1993).
Bridge positions count the residues as written; N and C are the ends. Peptide text beside a SMILES is read from it.

System: Male Wistar strain rats
Assay: serum calcium lowering effect in rats
Assay type: in vivo, rat
Details: for Change in serum Ca level: 4.5 μg/rat subcutaneously, mean of 4 rats
Experimental: The biological activities of HPCT and HPCT Cp(1-3S purified by the above-mentioned procedure were assayed using the serum calcium lowering effect in rats as an indicator.
Male Wistar strain rats weighing 300 to 350 grams were fasted overnight and used. Each animal was secured in supine position and under ether anesthesia, a polyethylene tube (Intramedic® PE-50, Clay Adams) filled with heparin sodium injection J. P. (Japan-Upjohn) was inserted into the femoral artery of the right hind leg. The rat was fixed in a Boleman cage, and 30 minutes after awakening of the animal, 0.5 ml of the blood was withdrawn through the above polyethylene tube inserted into the femoral artery into a polyethylene centrifugal tube containing 50 units of heparin sodium. Immediately thereafter 0.2 ml of the under-mentioned physiological saline, HPCT. HPCT.Cp(1-33) or swine calcitonin solution was administered subcutaneously at the back of the animal. Then, 1, 2, 4 and 6 hours after the administration, 0.5 ml each of the blood was taken through the above-mentioned polyethylene tube. The blood thus taken was promptly centrifuged on an Eppendorf microcentrifuge (Eppendorf 5414) at 13,000 r.p.m. for 1 minute and the supernatant was used as serum fraction.
The blood calcium level was measured by the o-cresolphthalein complexon method using a commercial calcium assay kit RM117-K (Ca SET) (Yatron). Fifty μl of the serum was taken in a test tube and stirred with 0.5 ml of the color reagent containing o-cresolphthalein complexon and 8-hydroxyquinoline (RM117-2). Then, 5.0 ml of monoethanolamine borate buffer (RM117-1) was added and stirred. Within 90 minutes thereafter, the absorbance was measured with a self-recording spectrophotometer (Hitachi 320) at the wavelength of 575 mu. The concentration of calcium was calculated from this absorbance value.
The methods used in the preparation of the physiological saline solution, HPCT solution, HPCT. Cp(1-3S) solution and swine calcitonin solution employed are as follows.
a) Physiological saline solution: Bovine serum albumin (Sigma®) was dissolved in physiological saline J. P. (Ohtsuka Pharmaceutical Co.) at room temperature to the albumin concentration of 0.1%.
b) HPCT solution: HPCT was diluted with the above-mentioned physiological saline solution containing 0.1% of albumin to the HPCT concentration of 4.5 μg/0.2 ml.
c) HPCT Cp(1-33) solution: HPCT Cp(1-33) was diluted with the above-mentioned physiological saline solution containing 0.1% of albumine to the HPCT Cp(1-33) concentration of 20 μg/0.2 ml.
d) Swine calcitonin solution: Calcital® for Injection (Yamanouchi Pharmaceutical Co.) containing 160 I.U. of calcitonin per vial was dissolved in 40 ml of a vehicle containing 16% of purified gelatin and 0.5% phenol J. P. and the solution was diluted with the above-mentioned physiological saline solution containing 0.1% of albumin. This dilution contained 0.2 or 1 I.U. of swine calcitonin per 0.2 ml.

## CC[C@H](C)[C@H](NC(=O)[C@H](C)NC(=O)[C@@H](NC(=O)[C@H](CCC(N)=O)NC(=O)[C@@H]1CCCN1C(=O)[C@H](Cc1ccccc1)NC(=O)[C@@H](NC(=O)[C@H](Cc1c[nH]cn1)NC(=O)[C@H](Cc1ccccc1)NC(=O)[C@H](CCCCN)NC(=O)[C@H](CC(N)=O)NC(=O)[C@H](Cc1ccccc1)NC(=O)[C@H](CC(=O)O)NC(=O)[C@H](CCC(N)=O)NC(=O)[C@@H](NC(=O)[C@H](Cc1ccc(O)cc1)NC(=O)[C@@H](NC(=O)CNC(=O)[C@H](CC(C)C)NC(=O)[C@@H](NC(=O)[C@@H]1CSSC[C@H](N)C(=O)NCC(=O)N[C@@H](CC(N)=O)C(=O)N[C@@H](CC(C)C)C(=O)N[C@@H](CO)C(=O)N[C@@H]([C@@H](C)O)C(=O)N1)C(C)C)[C@@H](C)O)[C@@H](C)O)[C@@H](C)O)[C@@H](C)O)C(=O)NCC(=O)N[C@H](C(=O)NCC(=O)N[C@@H](C)C(=O)N1CCC[C@H]1C(=O)NCC(=O)N[C@@H](CCCCN)C(=O)N[C@@H](CCCCN)C(=O)N[C@@H](CCCNC(=N)N)C(=O)O)C(C)C [HPCT] (H-CGNLSTCVLGTYTQDFNKFHTFPQTAIGVGAPGKKR-OH; disulfide 1-7)
4.5 μg of HPCT, rat, subcutaneous, serum calcium time course
  activity equivalent in swine calcitonin: 0.2 I.U.
Calcium level in the rat blood
  calcitonin activity: markedly reducing the calcium level in the rat blood
Rat serum calcium, Table 2, not compared in an equal amount
  physiological activity compared with swine calcitonin: stronger physiological activity as compared with swine calcitonin
rat, 4.5 μg subcutaneously, 1 and 2 hours after the administration
  serum calcium level: dropped with statistical significance
rat, 1 hour after administration
  Change in serum Ca level: -0.85 mg/dL
rat, 2 hours
  Change in serum Ca level: -0.64 mg/dL
rat, 3 hours
  Change in serum Ca level: -0.47 mg/dL
rat, 4 hours
  Change in serum Ca level: -0.63 mg/dL
